According to patent publication US11390637B2, “Salts of antiviral phosphonate analogues and process for preparation thereof” (CIPLA LIMITED, priority 2017, dated 2022):
Structures can show the parent of a compound that is named as a salt.

Legend:
[1] = Hygroscopicity (statement, no method described); assay type: physicochemical; conditions: in words
[2] = Solubility in physiologically acceptable solvents (statement, no method described); conditions: in words
[3] = In-vitro intrinsic dissolution of 200 mg pellets of API without excipients; assay type: physicochemical; conditions: for % release of Compound (I) from the respective Salts: Table 8; for % release of Compound (I) from the respective Salts / % release of active from fumarate salt pellet: 200 mg pellet, 0.01N HCl, 37° C., paddle 75 rpm; for % release of active from fumarate salt pellet: Table 7
Protocol: A tableting mixture (200 mg) comprising solely salts of (((1-(6-amino-9H-purin-9-yl)propan-2-yloxy)methyl) (phenoxy) phosphoryloxy) methyl pivalate-prepared according to any one of the examples 1 to 10 (i.e. with no excipients) was prepared and compressed to a pellet using an automatic KBR press operating at a compression pressure of 2 tones for 2 minutes.
Similarly a tableting mixture (200 mg) comprising a solely TAF (i.e. with no excipients) was prepared and compressed to a pellet using an automatic KBR press operating at a compression pressure of 2 tones for 2 minutes.
A tableting mixture (200 mg) comprising solely TDF (i.e. with no excipients) was prepared and compressed to a pellet using an automatic KBR press operating at a compression pressure of 2 tones for 2 minutes.
In-vitro dissolution studies were performed on the 200 mg pellet in a LAB INDIA DISSO 2000.
The pellet was fixed in a PFTE holder, such that only the pellet surface came into contact with the dissolution medium. The PFTE loaded holder was placed in the dissolution vessel containing 900 ml of 0.1M of HCl having […] at 37±0.5° C. Two pellets were measured for each run of the design of the experiments. Stirring was performed with a paddle rotating at 75 rpm. […]
Dissolution Media: 0.01N HCl
Bath temperature: 37.5° C.
Sample Preparation: Pellets were prepared by pressing sample with 2 ton pressure for 2 min
Note: Aliquots were analysed on HPLC.
The concentration of (((1-(6-amino-9H-purin-9-yl)propan-2-yloxy)methyl) (phenoxy) phosphoryloxy) methyl pivalate was quantified by HPLC UV method at a maximum wavelength of 300 nm under the conditions as specified below:
Standard Preparation: 25 mg standard dissolved to 25 ml with dissolution medium. 5 ml of this solution diluted to 25 ml with dissolution medium. Further 5 ml of this solution was diluted to 10 ml with diluent.
Sample Preparation: 200 mg of Sample pellets were prepared and subjected to dissolution. 10 ml of Aliquot was removed from the dissolution basket at predetermined time intervals. 5 ml of these aliquot was diluted to 10 ml with Diluent.
200 mg of input API of fumarate salt of (((1-(6-amino-9H-purin-9-yl)propan-2-yloxy)methyl) (phenoxy) phosphoryloxy) methyl pivalate used for pellet preparation.
The percentage of (((1-(6-amino-9H-purin-9-yl)propan-2-yloxy)methyl) (phenoxy) phosphoryloxy) methyl pivalate (TD), Tenofovir Alafenamide (TAF) and Tenofovir Disoproxil (TDF) released from the respective fumarate salt tablet were plotted against time as shown in FIG. 19. The intrinsic dissolution rate was derived from the slope of this curve.
To measure the intrinsic dissolution of the Salts of (((1-(6-amino-9H-purin-9-yl)propan-2-yloxy)methyl) (phenoxy) phosphoryloxy) methyl pivalate, samples were measured to compare the influence of the different parameter settings. At appropriate time intervals, an automated sample collector removes aliquots from the dissolution medium for analysis. The time interval for sampling can vary, for example, from 5 to 120 minutes, depending on the properties of the drug and dissolution medium used. Suitable dissolution equipment for these operations includes LAB INDIA DISSO 2000. Bath temperature—37.5° C.
200 mg of input API of each fumarate, oxalate, phosphate, citrate, succinate and tartrate Salts of (((1-(6-amino-9H-purin-9-yl)propan-2-yloxy)methyl) (phenoxy) phosphoryloxy) methyl pivalate used for pellet preparation.
The percentage of (((1-(6-amino-9H-purin-9-yl)propan-2-yloxy)methyl) (phenoxy) phosphoryloxy) methyl pivalate released from the respective salts tablet were plotted against time as shown in FIG. 20. The intrinsic dissolution rate was derived from the slope of this curve.

Compound | hygroscopicity [1] | % release of Compound (I) from the respective Salts ([3]; 5 min) | % release of Compound (I) from the respective Salts ([3]; 15 min) | % release of Compound (I) from the respective Salts ([3]; 30 min) | % release of Compound (I) from the respective Salts ([3]; 45 min) | % release of Compound (I) from the respective Salts ([3]; 60 min) | % release of Compound (I) from the respective Salts ([3]; 90 min) | % release of Compound (I) from the respective Salts ([3]; 120 min) | % release of Compound (I) from the respective Salts ([3]; 150 min) | % release of Compound (I) from the respective Salts ([3]; 180 min) | % release of Compound (I) from the respective Salts ([3]; 210 min) | % release of Compound (I) from the respective Salts ([3]; 240 min) | % release of active from fumarate salt pellet ([3]; 5 min) | % release of active from fumarate salt pellet ([3]; 10 min) | % release of active from fumarate salt pellet ([3]; 15 min) | % release of active from fumarate salt pellet ([3]; 30 min) | % release of active from fumarate salt pellet ([3]; 45 min) | % release of active from fumarate salt pellet ([3]; 60 min) | % release of active from fumarate salt pellet ([3]; 90 min) | % release of active from fumarate salt pellet ([3]; 120 min) | other results
CC(Cn1cnc2c(N)ncnc21)OCP(=O)(OCOC(=O)C(C)(C)C)Oc1ccccc1.O=C(O)CC(O)(CC(=O)O)C(=O)O (centres unmarked) [Citrate, (((1-(6-amino-9H-purin-9-yl)propan-2-yloxy)methyl) (phenoxy)phosphoryloxy) methyl pivalate citric acid salt] | not hygroscopic | 4% | 12% | 23% | 33% | 42% | 63% | 70% | 66% | 67% | 66% | 69% | – | – | – | – | – | – | – | – | solubility in physiologically acceptable solvents [2]: readily soluble
CC(Cn1cnc2c(N)ncnc21)OCP(=O)(OCOC(=O)C(C)(C)C)Oc1ccccc1.O=C(O)/C=C/C(=O)O (centres unmarked) [Fumarate, (((1-(6-amino-9H-purin-9-yl)propan-2-yloxy)methyl) (phenoxy)phosphoryloxy) methyl pivalate fumaric acid salt] | – | 3% | 7% | 12% | 18% | 24% | 35% | 45% | 56% | 66% | 75% | 83% | 7% | 5% | 6% | 12% | 18% | 24% | 35% | 45% | dissolution profile compared with TAF and TDF ([3]; in words, from the data of Table 7): slow dissolution profile than TAF and TDF
CC(Cn1cnc2c(N)ncnc21)OCP(=O)(OCOC(=O)C(C)(C)C)Oc1ccccc1.O=C(O)C(=O)O (centres unmarked) [Oxalate, (((1-(6-amino-9H-purin-9-yl)propan-2-yloxy)methyl) (phenoxy)phosphoryloxy) methyl pivalate oxalic acid salt] | not hygroscopic | 2% | 4% | 7% | 10% | 15% | 23% | 31% | 40% | 46% | 53% | 60% | – | – | – | – | – | – | – | – | solubility in physiologically acceptable solvents [2]: readily soluble; dissolution profile compared to other salts ([3]; in words, from the data of Table 8): slowest dissolution profile
CC(C)OC(=O)[C@H](C)N[P@](=O)(CO[C@H](C)Cn1cnc2c(N)ncnc21)Oc1ccccc1 [TAF, Tenofovir Alafenamide Fumarate, reference compound] | – | – | – | – | – | – | – | – | – | – | – | – | 6% | 7% | 9% | 16% | 24% | 31% | 46% | 60% | –
CC(C)OC(=O)OCOP(=O)(CO[C@H](C)Cn1cnc2c(N)ncnc21)OCOC(=O)OC(C)C [TDF, Tenofovir Disoproxil Fumarate, reference compound] | – | – | – | – | – | – | – | – | – | – | – | – | 8% | 5% | 7% | 13% | 19% | 26% | 37% | 50% | –
CC(Cn1cnc2c(N)ncnc21)OCP(=O)(OCOC(=O)C(C)(C)C)Oc1ccccc1.O=C(O)C(O)C(O)C(=O)O (centres unmarked) [Tartrate, (((1-(6-amino-9H-purin-9-yl)propan-2-yloxy)methyl) (phenoxy)phosphoryloxy) methyl pivalate tartaric acid salt] | – | 2% | 6% | 12% | 17% | 24% | 35% | 47% | 59% | 70% | 80% | 88% | – | – | – | – | – | – | – | – | –
